Laboratory results taken from ChEMBL document CHEMBL4825739, “Cannabinoid Receptor Agonists for the Potential Treatment of Pain, Neurological Disorders, Fibrotic Diseases, Obesity, and Many More” (ACS Med Chem Lett, 2021).

What follows are compounds tested against T1, Cannabinoid receptor 2 (Homo sapiens, UniProt P34972) (assay: Agonist activity at human CB2 receptor expressed in CHO-K1 cells assessed as maximum efficacy incubated for 20 mins measured after 60 mins addition of cAMP detect reagent by HTRF analysis relative to control). Conditions: filed as agonist, time 80.0 min.
T1 sequence (P34972 whole entry): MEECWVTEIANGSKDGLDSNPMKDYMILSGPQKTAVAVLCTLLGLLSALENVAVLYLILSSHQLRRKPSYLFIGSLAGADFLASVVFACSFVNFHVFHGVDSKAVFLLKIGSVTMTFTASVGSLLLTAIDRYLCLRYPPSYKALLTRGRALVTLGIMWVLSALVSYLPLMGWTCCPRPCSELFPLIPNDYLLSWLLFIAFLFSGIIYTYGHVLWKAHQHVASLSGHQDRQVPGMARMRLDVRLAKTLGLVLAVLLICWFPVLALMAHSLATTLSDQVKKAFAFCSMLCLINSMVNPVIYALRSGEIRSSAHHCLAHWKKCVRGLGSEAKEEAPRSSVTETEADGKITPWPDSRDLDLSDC
Assay type: functional, cell-based
For CC(C)(C)NC(=O)c1c2c(nn1-c1ccc(F)cc1F)C1CCC(C2)O1 (stereo not given), the Emax was less than 50%.
Work on CC(C)(C)NC(=O)c1c2c(nn1-c1c[n+]([O-])ccn1)C1CCC(C2)O1 (stereo not given) yielded an Emax of less than 50%.
CC(C)(C)NC(=O)c1c2c(nn1-c1cnccn1)CC1CCC2O1 (stereo not given) showed an Emax of less than 50%.
In the case of O=C(NC1(C(F)(F)F)CCC1)c1nn(-c2cnccn2)c2c1CC1CCC2O1 (stereo not given), the Emax is reported as 90.3%.
CC(C)(C)c1nnc(-c2nn(-c3c[n+]([O-])ccn3)c3c2CC2CCC3O2)s1 (stereo not given) showed an Emax of 94.9%.
O=C(NC12CCC(CC1)CC2)c1nn(-c2c[n+]([O-])ccn2)c2c1CC1CCC2O1 (stereo not given) gave an Emax of 96.5%.
Compound CC(C)(C)[C@@H](CO)NC(=O)c1nn(-c2cnccn2)c2c1C[C@@H]1CC[C@H]2O1 has an Emax of less than 50%.
Work on CC(C)(C)[C@@H](CO)NC(=O)c1nn(-c2cnccn2)c2c1C[C@H]1CCC2O1 (single isomer, unassigned) yielded an Emax of 111%.
O=C(NC12CC3CC(CC1C3)C2)c1nn(-c2ccc(F)cc2F)c2c1CC1CCC2O1 (stereo not given) gave an Emax of 98%.
In the case of O=C(NC12CC(C1)C2)c1nn(-c2c[n+]([O-])ccn2)c2c1CC1CCC2O1 (stereo not given), the Emax is reported as 91%.
In the case of CCC(C)(C)c1noc(-c2nn(-c3cnccn3)c3c2CC2CCC3O2)n1 (stereo not given), the Emax is reported as less than 50%.
CC(C)(C)NC(=O)c1c2c(nn1-c1c[n+]([O-])ccn1)CC1CCC2O1 (stereo not given) gave an Emax of less than 50%.
In the case of O=C(NC12CC3CC(CC1C3)C2)c1nn(-c2cnccn2)c2c1CC1CCC2O1 (stereo not given), the Emax is reported as 111%.
CC(C)(C)NC(=O)c1nn(-c2ccc(F)cc2F)c2c1CC1CCC2O1 (stereo not given) showed an Emax of 99%.

The compounds below were run against T2, Cannabinoid receptor 1 (Homo sapiens, UniProt P21554) (assay: Agonist activity at human CB1 receptor expressed in CHO-K1 cells assessed as maximum efficacy incubated for 20 mins measured after 60 mins addition of cAMP detect reagent by HTRF analysis relative to control). Conditions: filed as agonist.
T2 sequence (P21554 whole entry): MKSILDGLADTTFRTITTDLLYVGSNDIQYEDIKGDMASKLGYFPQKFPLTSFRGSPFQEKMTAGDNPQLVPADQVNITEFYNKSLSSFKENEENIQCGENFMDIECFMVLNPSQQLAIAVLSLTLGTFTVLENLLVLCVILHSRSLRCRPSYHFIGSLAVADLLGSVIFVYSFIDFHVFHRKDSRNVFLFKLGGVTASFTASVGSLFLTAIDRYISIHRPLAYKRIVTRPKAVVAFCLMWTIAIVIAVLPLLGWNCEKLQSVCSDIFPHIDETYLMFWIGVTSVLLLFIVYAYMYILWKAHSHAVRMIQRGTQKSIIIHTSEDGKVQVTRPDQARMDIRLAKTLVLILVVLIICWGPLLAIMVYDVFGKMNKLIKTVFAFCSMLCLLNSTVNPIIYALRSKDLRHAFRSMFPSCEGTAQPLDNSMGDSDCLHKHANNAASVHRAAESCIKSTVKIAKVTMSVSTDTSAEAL
Assay type: functional, cell-based
Work on CC(C)(C)NC(=O)c1c2c(nn1-c1ccc(F)cc1F)C1CCC(C2)O1 (stereo not given) yielded an Emax of 72.8%.
CC(C)(C)NC(=O)c1c2c(nn1-c1c[n+]([O-])ccn1)C1CCC(C2)O1 (stereo not given) gave an Emax of 66.3%.
CC(C)(C)NC(=O)c1c2c(nn1-c1cnccn1)CC1CCC2O1 (stereo not given) gave an Emax of 85.8%.
O=C(NC1(C(F)(F)F)CCC1)c1nn(-c2cnccn2)c2c1CC1CCC2O1 (stereo not given) was tested, and the Emax was 100%.
CC(C)(C)c1nnc(-c2nn(-c3c[n+]([O-])ccn3)c3c2CC2CCC3O2)s1 (stereo not given) was tested, and the Emax was 99%.
O=C(NC12CCC(CC1)CC2)c1nn(-c2c[n+]([O-])ccn2)c2c1CC1CCC2O1 (stereo not given) was tested, and the Emax was 99.7%.
In the case of CC(C)(C)[C@@H](CO)NC(=O)c1nn(-c2cnccn2)c2c1C[C@@H]1CC[C@H]2O1, the Emax is reported as 100%.
CC(C)(C)[C@@H](CO)NC(=O)c1nn(-c2cnccn2)c2c1C[C@H]1CCC2O1 (single isomer, unassigned) showed an Emax of 100%.
For O=C(NC12CC3CC(CC1C3)C2)c1nn(-c2ccc(F)cc2F)c2c1CC1CCC2O1 (stereo not given), the Emax was 99.1%.
Compound O=C(NC12CC(C1)C2)c1nn(-c2c[n+]([O-])ccn2)c2c1CC1CCC2O1 (stereo not given) has an Emax of 100%.
With CCC(C)(C)c1noc(-c2nn(-c3cnccn3)c3c2CC2CCC3O2)n1 (stereo not given) the Emax was 99.8%.
CC(C)(C)NC(=O)c1c2c(nn1-c1c[n+]([O-])ccn1)CC1CCC2O1 (stereo not given) gave an Emax of 80.3%.
O=C(NC12CC3CC(CC1C3)C2)c1nn(-c2cnccn2)c2c1CC1CCC2O1 (stereo not given) showed an Emax of 100%.
With CC(C)(C)NC(=O)c1nn(-c2ccc(F)cc2F)c2c1CC1CCC2O1 (stereo not given) the Emax was 95.6%.

The compounds below were run against T1, Cannabinoid receptor 2 (assay: Agonist activity at human CB2 receptor expressed in CHO-K1 cells assessed as […] incubated for 20 mins measured after 60 mins addition of cAMP detect reagent by HTRF analysis). Conditions: not given.
Assay type: functional, cell-based
Compound O=C(NC1(C(F)(F)F)CCC1)c1nn(-c2cnccn2)c2c1CC1CCC2O1 (stereo not given) has an EC50 of 571 nM.
In the case of CC(C)(C)c1nnc(-c2nn(-c3c[n+]([O-])ccn3)c3c2CC2CCC3O2)s1 (stereo not given), the EC50 is reported as 130 nM.
O=C(NC12CCC(CC1)CC2)c1nn(-c2c[n+]([O-])ccn2)c2c1CC1CCC2O1 (stereo not given) showed an EC50 of 48.5 nM.
With CC(C)(C)[C@@H](CO)NC(=O)c1nn(-c2cnccn2)c2c1C[C@H]1CCC2O1 (single isomer, unassigned) the EC50 was 422 nM.
O=C(NC12CC3CC(CC1C3)C2)c1nn(-c2ccc(F)cc2F)c2c1CC1CCC2O1 (stereo not given) gave an EC50 of 0.7 nM.
For O=C(NC12CC(C1)C2)c1nn(-c2c[n+]([O-])ccn2)c2c1CC1CCC2O1 (stereo not given), the EC50 was 1780 nM.
For O=C(NC12CC3CC(CC1C3)C2)c1nn(-c2cnccn2)c2c1CC1CCC2O1 (stereo not given), the EC50 was 16.6 nM.
With CC(C)(C)NC(=O)c1nn(-c2ccc(F)cc2F)c2c1CC1CCC2O1 (stereo not given) the EC50 was 108 nM.

Each compound was assayed against T2, Cannabinoid receptor 1 (assay: Agonist activity at human CB1 receptor expressed in CHO-K1 cells assessed as […] incubated for 20 mins measured after 60 mins addition of cAMP detect reagent by HTRF analysis). Conditions: not given.
Assay type: functional, cell-based
CC(C)(C)NC(=O)c1c2c(nn1-c1ccc(F)cc1F)C1CCC(C2)O1 (stereo not given) showed an EC50 of 2980 nM.
With CC(C)(C)NC(=O)c1c2c(nn1-c1c[n+]([O-])ccn1)C1CCC(C2)O1 (stereo not given) the EC50 was 7970 nM.
For CC(C)(C)NC(=O)c1c2c(nn1-c1cnccn1)CC1CCC2O1 (stereo not given), the EC50 was 1650 nM.
O=C(NC1(C(F)(F)F)CCC1)c1nn(-c2cnccn2)c2c1CC1CCC2O1 (stereo not given) was tested, and the EC50 was 0.04 nM.
In the case of CC(C)(C)c1nnc(-c2nn(-c3c[n+]([O-])ccn3)c3c2CC2CCC3O2)s1 (stereo not given), the EC50 is reported as 0.06 nM.
O=C(NC12CCC(CC1)CC2)c1nn(-c2c[n+]([O-])ccn2)c2c1CC1CCC2O1 (stereo not given) was tested, and the EC50 was 0.02 nM.
Compound CC(C)(C)[C@@H](CO)NC(=O)c1nn(-c2cnccn2)c2c1C[C@@H]1CC[C@H]2O1 has an EC50 of 0.56 nM.
CC(C)(C)[C@@H](CO)NC(=O)c1nn(-c2cnccn2)c2c1C[C@H]1CCC2O1 (single isomer, unassigned) showed an EC50 of 0.09 nM.
Work on O=C(NC12CC3CC(CC1C3)C2)c1nn(-c2ccc(F)cc2F)c2c1CC1CCC2O1 (stereo not given) yielded an EC50 of 0.08 nM.
O=C(NC12CC(C1)C2)c1nn(-c2c[n+]([O-])ccn2)c2c1CC1CCC2O1 (stereo not given) showed an EC50 of 0.05 nM.
For CCC(C)(C)c1noc(-c2nn(-c3cnccn3)c3c2CC2CCC3O2)n1 (stereo not given), the EC50 was 0.04 nM.
For CC(C)(C)NC(=O)c1c2c(nn1-c1c[n+]([O-])ccn1)CC1CCC2O1 (stereo not given), the EC50 was 2670 nM.
O=C(NC12CC3CC(CC1C3)C2)c1nn(-c2cnccn2)c2c1CC1CCC2O1 (stereo not given) gave an EC50 of 0.02 nM.
CC(C)(C)NC(=O)c1nn(-c2ccc(F)cc2F)c2c1CC1CCC2O1 (stereo not given) gave an EC50 of 1.2 nM.
